Measured values from US20050014766A1, “Use of n-(indolecarbonyl-)piperazine derivatives” (priority 2002, published 2005).

How the values were obtained:
[1] = Feeding experiment on Beagle hounds (body weight, feed consumption, behaviour and general state); assay type: in vivo
Protocol: The efficacy of the compounds of the formula I for the treatment of obesity can be determined in vivo as follows (cf. Example B): A certain dose or varying doses of the test compound is administered to one group of experimental animals over an extended period. The amount of feed consumed and the body weight of the experimental animals are recorded regularly. At the same time, the behaviour and general state of the animals are monitored in a manner known per se. Conclusions can be drawn on the suitability of the test compound for the treatment of obesity from the decrease in the body weight and the take-up of feed in the experimental period with an otherwise unchanged general state and in the absence of changes in behaviour. The test substance in the form of hard gelatine capsules produced as described in Example B7 is administered once daily over a period of 11 days to a group of Beagle hounds about 8 months old which had been dewormed in advance. The amount of feed consumed is determined daily by re-weighing the unconsumed feed, the body weight before (day 0), during (day 5) and after (day 12) the feeding experiment. At the same time, the behaviour and general state of the animals are monitored over the entire experimental period. Drinking water in unlimited amount is available to the dogs. […] The behaviour and general state of the dogs are not impaired in the experimental period by the administration of the test substance.

[2] = as above; assay type: in vivo; remark: listed apart in the source
[3] = Beagle hounds, once daily oral capsules over 11 days

Cl.N#Cc1c[nH]c2c(C(=O)N3CCN(CCc4ccc(F)cc4)CC3)cccc12 [(3-cyano-1H-indol-7-yl)[4-(4-fluoro-phenethyl)piperazin-1-yl]methanone, hydrochloride]
body weight ([1]; Dog 8910 (male), day 0, before dosing): 8.6 kg | feed consumption ([1]; Dog 8910 (male), day 2, dose 10 mg/kg): 320 g | body weight ([1]; Dog 8910 (male), day 5, once daily capsules 3, 10, 30 mg/kg days 1-3, 100 mg/kg from day 4): 8.6 kg | feed consumption ([1]; Dog 8910 (male), day 6, dose 100 mg/kg): 240 g | feed consumption ([1]; Dog 8910 (male), day 10, dose 100 mg/kg): 20 g | body weight ([1]; Dog 8910 (male), day 12, after 3, 10, 30 mg/kg days 1-3 and 100 mg/kg days 4-11): 7.8 kg | feed consumption ([1]; Dog 8936 (female), day 6, dose 100 mg/kg): 140 g | behaviour and general state of the dogs ([2]; Beagle hounds, experimental period, doses up to 100 mg/kg): not impaired | body weight change (in words) [2, 3]: significant reduction in body weight | consumption of feed during the experiment (in words) [2, 3]: increasingly restrict the consumption of feed | body weight ([2]; Dog 1201 (male), day 0, before dosing): 6.8 kg | feed consumption ([2]; Dog 1201 (male), day 1, no dose yet (dosing starts day 5)): 440 g | feed consumption ([2]; Dog 1201 (male), day 2, no dose yet (dosing starts day 5)): 260 g | feed consumption ([2]; Dog 1201 (male), day 3, no dose yet (dosing starts day 5)): 400 g | feed consumption ([2]; Dog 1201 (male), day 4, no dose yet (dosing starts day 5)): 230 g | feed consumption ([2]; Dog 1201 (male), day 5, dose 50 mg/kg): 340 g | body weight ([2]; Dog 1201 (male), day 5, first day of 50 mg/kg): 7.1 kg | feed consumption ([2]; Dog 1201 (male), day 6, dose 50 mg/kg): 220 g | feed consumption ([2]; Dog 1201 (male), day 7, dose 50 mg/kg): 160 g | feed consumption ([2]; Dog 1201 (male), day 8, dose 50 mg/kg): 170 g | feed consumption ([2]; Dog 1201 (male), day 9, dose 50 mg/kg): 130 g | feed consumption ([2]; Dog 1201 (male), day 10, dose 50 mg/kg): 80 g | feed consumption ([2]; Dog 1201 (male), day 11, dose 50 mg/kg): 40 g | body weight ([2]; Dog 1201 (male), day 12, after 50 mg/kg days 5-11): 6.3 kg | body weight ([2]; Dog 2164 (female), day 0, before dosing): 6.1 kg | feed consumption ([2]; Dog 2164 (female), day 1, no dose yet (dosing starts day 5)): 310 g | feed consumption ([2]; Dog 2164 (female), day 2, no dose yet (dosing starts day 5)): 270 g | feed consumption ([2]; Dog 2164 (female), day 3, no dose yet (dosing starts day 5)): 280 g | feed consumption ([2]; Dog 2164 (female), day 4, no dose yet (dosing starts day 5)): 280 g | feed consumption ([2]; Dog 2164 (female), day 5, dose 50 mg/kg): 340 g | body weight ([2]; Dog 2164 (female), day 5, first day of 50 mg/kg): 5.9 kg | feed consumption ([2]; Dog 2164 (female), day 6, dose 50 mg/kg): 180 g | feed consumption ([2]; Dog 2164 (female), day 7, dose 50 mg/kg): 260 g | feed consumption ([2]; Dog 2164 (female), day 8, dose 50 mg/kg): 150 g | feed consumption ([2]; Dog 2164 (female), day 9, dose 50 mg/kg): 140 g | feed consumption ([2]; Dog 2164 (female), day 10, dose 50 mg/kg): 130 g | feed consumption ([2]; Dog 2164 (female), day 11, dose 50 mg/kg): 60 g | body weight ([2]; Dog 2164 (female), day 12, after 50 mg/kg days 5-11): 5.5 kg | feed consumption ([2]; Dog 8910 (male), day 1, dose 3 mg/kg): 380 g | feed consumption ([2]; Dog 8910 (male), day 3, dose 30 mg/kg): 370 g | feed consumption ([2]; Dog 8910 (male), day 4, dose 100 mg/kg): 320 g | feed consumption ([2]; Dog 8910 (male), day 5, dose 100 mg/kg): 250 g | feed consumption ([2]; Dog 8910 (male), day 7, dose 100 mg/kg): 60 g | feed consumption ([2]; Dog 8910 (male), day 8, dose 100 mg/kg): 60 g | feed consumption ([2]; Dog 8910 (male), day 9, dose 100 mg/kg): 40 g | feed consumption ([2]; Dog 8910 (male), day 11, dose 100 mg/kg): 90 g | body weight ([2]; Dog 8936 (female), day 0, before dosing): 7.5 kg | feed consumption ([2]; Dog 8936 (female), day 1, dose 3 mg/kg): 380 g | feed consumption ([2]; Dog 8936 (female), day 2, dose 10 mg/kg): 380 g | feed consumption ([2]; Dog 8936 (female), day 3, dose 30 mg/kg): 360 g | feed consumption ([2]; Dog 8936 (female), day 4, dose 100 mg/kg): 220 g | feed consumption ([2]; Dog 8936 (female), day 5, dose 100 mg/kg): 200 g | body weight ([2]; Dog 8936 (female), day 5, once daily capsules 3, 10, 30 mg/kg days 1-3, 100 mg/kg from day 4): 7.3 kg | feed consumption ([2]; Dog 8936 (female), day 7, dose 100 mg/kg): 80 g | feed consumption ([2]; Dog 8936 (female), day 8, dose 100 mg/kg): 30 g | feed consumption ([2]; Dog 8936 (female), day 9, dose 100 mg/kg): 30 g | feed consumption ([2]; Dog 8936 (female), day 10, dose 100 mg/kg): 70 g | feed consumption ([2]; Dog 8936 (female), day 11, dose 100 mg/kg): 10 g | body weight ([2]; Dog 8936 (female), day 12, after 3, 10, 30 mg/kg days 1-3 and 100 mg/kg days 4-11): 6.2 kg
